# Entries after “also recorded” stand apart in the source; their conditions may differ. Where two headings read alike, the source gives them in different places. Marks after values point to notes of the source that are not given here.
# Assays:
# [1] = test system: iron-induced lipid peroxidation (MDA formation) in rat brain cortex homogenates; experiment: Prevention of iron-induced lipid peroxidation (MDA formation, TBA method) in rat brain cortex homogenates; format: biochemical; settings: 10^−3M chelator; for reduction of iron-induced MDA formation: 10^−4M ferric chloride
# Procedure: The ability of the compounds of the invention to prevent lipid peroxidation in brain tissue was first screened in rat brain homogenates in vitro by a method involving the detection of free radicals performed by […] and measurement of the MDA formation, as described by D. Ben-Shachar et al. (1991) J. Neurochem. 57: 1609-14. In this method, brain cortex homogenates are prepared in sucrose and incubated alone to determine basal lipid peroxidation, or incubated after the addition of Fe2(SO4)3 or FeCl3 for Fe-induction of maximum free-radical formation, and in the presence of the iron chelators to be tested. After addition of TBA, lipid peroxidation is assayed by measurement of MDA formation.
# Brain cortex homogenates (10% wt/vol) from male Wistar rats were prepared in 0.3M sucrose and incubated in air as described (Rehncrona et al., (1980) J. Neurochem. 34: 1630-38). Aliquots (0.1 ml) of homogenate were incubated alone at 30° C. for 90 min to determine basal lipid peroxidation, or incubated after the addition of 10^−4 Fe2(SO4), or FeCl3 and in the presence of 10^−3M iron chelator of formula I or II. For the assay, to 0.3 ml of the homogenate there were added 0.2 ml of 8% SDS, 1.5 ml of 20% acetic acid pH 3.0-3.5, 1.5 ml of 0.8% thiobarbituric acid (TBA) and 0.5 ml of H2O2×2, the mixture was incubated at 95° C. for 60 min, cooled and lipid peroxidation was assayed by measurement of malondialdehyde formation at 532 nm, as described (Dexter et al. (1989) J. Neurobiochem. 52: 381-89). Standard curve: 1,1,3,3-tetraethoxypropane 0.1-25 nmol in 0.3 ml.
# In another experiment, the Compounds 3, 7, 9-17 and 26 were examined for their ability to inhibit lipid peroxidation in vitro by measuring their capability to inhibit MDA formation in the presence of 10^−4M FeCl3 in rat brain homogenates. Ferric chloride(10^−4M)-induced lipid peroxidation, as measured by MDA formation in rat cerebral cortex homogenates, was inhibited to a different degree by 10^−3M of the various chelators.
# [2] = test system: 6-OHDA-induced dopaminergic neuron degeneration; settings: cited from earlier work
# [3] = test system: 6-OHDA-induced lesion of nigrostriatal dopamine neurons; experiment: Prevention of 6-OHDA-induced toxicity in rats (striatal biogenic amines and metabolites by HPLC); format: in vivo, rat
# Procedure: Male Sprague-Dawley rats, weighing 230-270 g, were housed in a controlled-temperature room with a standardized dark-light schedule (12/12 h) for 4 weeks. Rats were anesthetized with a mixture of 15 mg/kg of pentobarbital and 60 mg/kg of chloral hydrate. 6-OHDA (250 μg in 5 μl of 0.9% NaCl containing 0.2% ascorbic acid), the chelator 3 or 15 (200 μg in 5 μl), a combination of both (the chelator 3 or 15 15 min before 6-OHDA), or saline (5 μl) (control) was injected into the right cerebral ventricle using stereotactic techniques. The coordinates with bregma as the reference were D 0.8 mm, L 1.3 mm, and V 3.6 mm according to the atlas of Paxinos and Watson. Pargyline (50 mg/kg i.p.) and desmethylimipramine-HCl (25 mg/kg i.p.) were administered to all the rats 60 min before intracerebroventricular injection. Pargyline inhibits monoamine oxidase and thereby enhances the toxicity of 6-OHDA, and desmethylimipramine provides protection for central noradrenergic neurons from the toxin. All the animals received a daily injection of isotonic glucose (4 ml/day i.p.) until they regained their original body weight. Behavioral tests were performed 4 weeks after operation, commencing between 8 and 10 a.m. The rats were killed after the behavioral studies. Desferal was obtained from Ciba Geigy, and other chemicals were from Sigma (St. Louis, Mo., U.S.A.).
# Norepinephrine (NE), DA, and metabolite levels were measured as follows: four weeks postoperatively, rats were killed by decapitation, and the brains were rapidly removed. The striata were dissected on an ice-chilled glass plate and quickly frozen in liquid nitrogen. The endogenous levels of NE, DA, 3,4-dihydroxyphenylacetic acid (DOPAC), and homovanillic acid (HVA) were determined by HPLC with electrochemical detection (Ben-Shachar et al. (1991) Eur. J. Pharmacol. 202:177-83). All data are expressed as mean±SEM values. Statistical analysis was carried out by analysis of variance with multiple comparisons followed by Student's t test.
# Striatal dopamine and its metabolites DOPAC and HVA concentrations, which were determined by HPLC, served as a criteria for the extent of the damage caused by 6-OHDA in the presence or absence of the iron chelators. […] Dopamine turnover was normal in rats pretreated with iron chelators (Table 1).
# Based on confirmation properties of the two iron chelators 3 and 15, it was considered that Compound 15 has a better chance to cross the blood-brain-barrier (BBB) and the studies were continued with Compound 15. In order to decrease to minimum the possibility of a direct interaction between the chelator and the toxin as a cause for the protection, and to try to find a smaller effective dose of the chelator, 1 μg Compound 15 was injected intraventricularly prior to the injection of 250 μg 6-OHDA.
# The main goal at this stage of research was to find out whether Compound 15 given peripherally would be able to prevent 6-OHDA-induced toxicity. In other words the question was whether the chelator will stay stable in the periphery, cross the BBB and […]. Control group received phosphate buffer pH−6.4 0.1M. On the 11th day, the rats of both groups were injected intraventricularly with 250 μg 6-OHDA.
# [4] = intracerebroventricular 6-OHDA (250 μg)
# [5] = Table 1: 200 μg chelator intraventricular prior to 250 μg 6-OHDA (Comb.), 6-OHDA = 250 μg 6-OHDA alone
# [6] = Table 1: 200 μg chelator intraventricular prior to 250 μg 6-OHDA (Comb.), 6-OHDA = 250 μg 6-OHDA alone, mean±SEM
# [7] = Table 2: 1 μg chelator 15 intraventricular prior to 250 μg 6-OHDA (Comb.), 6-OHDA = 250 μg 6-OHDA alone
# [8] = Table 3: chelator 15 5 mg/Kg/day i.p. for 10 days + 250 μg 6-OHDA intraventricular (Comb.), 6-OHDA = 250 μg 6-OHDA without chelator
smiles,measurement,setting,value
Cl.Cl.Cl.Oc1ccc(CN2CCNCC2)c2cccnc12,melting point,,232 to 234 °C (dec.)
Cl.Cl.Cl.Cl.Oc1ccc(CN2CCN(Cc3ccc(O)c4ncccc34)CC2)c2cccnc12,melting point,,227 to 228 °C
"O=C(CCC(CN(CC(=O)OCc1ccccc1)CC(=O)OCc1ccccc1)N(CC(=O)OCc1ccccc1)CC(=O)OCc1ccccc1)NCCN1CCN(C(=O)OCc2ccccc2)CC1 (stereo not shown) [Compound 1, N-[2-(4-carbobenzoxypiperazin-1-yl)ethyl]-4,5-bis[bis(benzyloxycarbonylmethyl)amino]valeramide]",reduction of iron-induced MDA formation,[1],~50%
"CC(=O)c1cc(CN2CCN(CCO)CC2)ccc1O [Compound 5, 2-acetyl-4-[4-(2-hydroxyethyl)piperazin-1-yl-methyl]phenol]",melting point,,72 to 75 °C
"NCCc1cc(O)c(O)cc1O [Compound 6-OHDA, 6-hydroxydopamine]",increase in DA release as indicated by the HVA/DA ratio,[2]; [4],2.5 fold
same,reduction in striatal tissue content of DOPAC,[2]; [4],79%
same,reduction in striatal tissue content of HVA,[2]; [4],70%
same,reduction in striatal tissue content of dopamine (DA),[2]; [4],88%
same,decrease in striatal dopamine levels,"[3]; 250 μg 6-OHDA intraventricular, rats",80%
same,(DOPAC + HAV)/DA (dopamine turnover),[3]; [5],0.202
same,5-HIAA in rat striatum,[3]; [6],3.76 ± 0.20 pmol/mg tissue
same,5-HT in rat striatum,[3]; [6],4.00 ± 0.35 pmol/mg tissue
same,DA in rat striatum,[3]; [6],19.93 ± 5.0^c pmol/mg tissue
same,DOPAC in rat striatum,[3]; [6],1.79 ± 0.25^a pmol/mg tissue
same,HVA in rat striatum,[3]; [6],2.24 ± 0.23 pmol/mg tissue
same,NE in rat striatum,[3]; [6],5.0 ± 0.1 pmol/mg tissue
same,5-HIAA in rat striatum,[3]; [7],6.29 ± 0.65 pmol/mg tissue
same,5-HT in rat striatum,[3]; [7],3.22 ± 0.42 pmol/mg tissue
same,(DOPAC + HAV)/DA (dopamine turnover),[3]; [7],0.14
same,DA in rat striatum,[3]; [7],12.93 ± 3.3^a pmol/mg tissue
same,DOPAC in rat striatum,[3]; [7],0.76 ± 0.11^a pmol/mg tissue
same,HVA in rat striatum,[3]; [7],1.10 ± 0.21^a pmol/mg tissue
same,NE in rat striatum,[3]; [7],1.1 ± 0.1 pmol/mg tissue
same,5-HIAA in rat striatum,[3]; [8],1.57 ± 0.07 pmol/mg tissue
same,5-HT in rat striatum,[3]; [8],2.60 ± 0.15 pmol/mg tissue
same,(DOPAC + HAV)/DA (dopamine turnover),[3]; [8],0.16
same,DA in rat striatum,[3]; [8],9.69 ± 2.63^a pmol/mg tissue
same,DOPAC in rat striatum,[3]; [8],0.51 ± 0.11^A pmol/mg tissue
same,HVA in rat striatum,[3]; [8],1.05 ± 0.19^A pmol/mg tissue
same,NE in rat striatum,[3]; [8],1.22 ± 0.04 pmol/mg tissue
"OCCN1CCN(Cc2ccc(O)c3ncccc23)CC1 [Compound 15, 5-(4-(2-hydroxyethyl)piperazin-1-ylmethyl)-8-hydroxyquinoline]","inhibition of MDA formation (lipid peroxidation), in words","[1]; 10^−4M FeCl3, rat cerebral cortex homogenates",most effective
same,reduction of iron-induced MDA formation,[1],~50%
same,"prevention of 6-OHDA-induced lesion, in words",[3]; 1 μg intraventricular prior to 250 μg 6-OHDA,effective in preventing 6-OHDA-induced lesion
same,"prevention of 6-OHDA-induced reduction in striatal dopamine and DOPAC concentrations, in words",[3]; 200 μg chelator intraventricular prior to 250 μg 6-OHDA,efficiently prevented
same,"protection against 6-OHDA toxicity, in words",[3]; 5 mg/Kg i.p. for 10 days before intraventricular 250 μg 6-OHDA,Partial but significant protection; also recorded: partially protected
same,(DOPAC + HAV)/DA (dopamine turnover),[3]; [5],0.15
same,5-HIAA in rat striatum,[3]; [6],4.48 ± 0.38 pmol/mg tissue
same,5-HT in rat striatum,[3]; [6],4.24 ± 0.43 pmol/mg tissue
same,DA in rat striatum,[3]; [6],33.8 ± 4.3 pmol/mg tissue
same,DOPAC in rat striatum,[3]; [6],2.45 ± 0.25 pmol/mg tissue
same,HVA in rat striatum,[3]; [6],2.67 ± 0.33 pmol/mg tissue
same,NE in rat striatum,[3]; [6],5.01 ± 0.1 pmol/mg tissue
same,5-HIAA in rat striatum,[3]; [7],4.98 ± 0.46 pmol/mg tissue
same,5-HT in rat striatum,[3]; [7],4.84 ± 0.45 pmol/mg tissue
same,(DOPAC + HAV)/DA (dopamine turnover),[3]; [7],0.08
same,DA in rat striatum,[3]; [7],62.9 ± 3.13 pmol/mg tissue
same,DOPAC in rat striatum,[3]; [7],2.49 ± 0.13 pmol/mg tissue
same,HVA in rat striatum,[3]; [7],2.77 ± 0.25 pmol/mg tissue
same,NE in rat striatum,[3]; [7],1.3 ± 0.12 pmol/mg tissue
same,5-HIAA in rat striatum,[3]; [8],1.59 ± 0.16 pmol/mg tissue
same,5-HT in rat striatum,[3]; [8],2.6 ± 0.31 pmol/mg tissue
same,(DOPAC + HAV)/DA (dopamine turnover),[3]; [8],0.15
same,DA in rat striatum,[3]; [8],24.4 ± 4.4^ab pmol/mg tissue
same,DOPAC in rat striatum,[3]; [8],1.4 ± 0.25 pmol/mg tissue
same,HVA in rat striatum,[3]; [8],2.28 ± 0.75 pmol/mg tissue
same,NE in rat striatum,[3]; [8],1.21 ± 0.4 pmol/mg tissue
CC(=O)N(O)CCCCCNC(=O)CCC(=O)N(O)CCCCCNC(=O)CCC(=O)N(O)CCCCCN [desferrioxamine],protection against the 6-OHDA-induced reduction in striatal DA content,[2]; 13 ng i.c.v. prior to 6-OHDA (250 μg),100%
same,protection against the 6-OHDA-induced reduction in striatal DA content,[2]; 130 ng i.c.v. prior to 6-OHDA (250 μg),~60%
same,"DA release (HVA/DA ratio), in words",[2]; desferrioxamine i.c.v. prior to 6-OHDA,normalization of DA release
same,"dopaminergic-related behavioral responses (spontaneous movements in a novel environment, rearing), in words","[2]; desferrioxamine-pretreated rats, 6-OHDA",almost normal behavioral responses
same,"protection against 6-OHDA-induced lesions of nigrostriatal dopamine neurons, in words",[2]; rats,protected

# Reference: patent US6855711B1, “Pharmaceutical compositions comprising iron chelators for the treatment of neurodegenerative disorders and some novel iron chelators” (Yeda Research and Development Co. Ltd., priority 1999, dated 2005)
